# Source: PubChem BioAssay AID720587 (Broad Institute, 2013)
# Activity calls are given as the source filed them.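 Rule for the calls: active = fitted curve reaches -35% activity change at a concentration below twice the top valid dose tested; inactive = the rest, including effects opposite to the expected direction.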
# Test system: A673 Ewing sarcoma viability, CellTiter-Glo ATP luminescence, 72 h
# Test: EWS/Fli1-dependent A673 cell killing, confirmation, CellTiter-Glo luminescence, cherry-pick retest (AID 720587)
# Settings: not given
row,SMILES,AC35
1,Cc1cccc(NC(=O)CN2CCN(C(=O)CNC(=O)c3ccc(-c4ccccc4)cc3)CC2)c1C,12.8 µM
2,CN(c1ccc(NC(=O)CCc2c[nH]c3ccccc23)cc1)c1ccccn1,9.08 µM
3,CO[C@H]1CN(C)C(=O)c2ccc(NC(=O)c3ccc(-c4ccccc4)cc3)cc2OC[C@H](C)NC[C@H]1C,10.5 µM
4,COC(=O)C[C@@H]1CC[C@@H]2[C@H](COc3ccc(NC(=O)Nc4cccc(Cl)c4)cc3C(=O)N2C)O1,12.5 µM
5,C[C@H](CO)N1C[C@H](C)[C@H](CN(C)Cc2ccc(Oc3ccccc3)cc2)Oc2ccc(NC(=O)Cn3cnnn3)cc2CC1=O,8.16 µM
6,C[C@@H]1O[C@@H](O[C@@H]2C=C3CC[C@@H]4C(CC[C@]5(C)[C@@H](c6ccc(=O)oc6)CC[C@]45O)[C@@]3(C)CC2)[C@H](O)[C@H](O)[C@H]1O (stereo partly specified),0.0233 µM
7,C[C@H](CO)N1C[C@H](C)[C@H](CN(C)Cc2ccc(Oc3ccccc3)cc2)Oc2ccc(NC(=O)CCCCCC(=O)Nc3ccccc3N)cc2CC1=O,4.84 µM
8,C[C@@H]1CN([C@@H](C)CO)C(=O)Cc2cc(N(C)C)ccc2O[C@@H]1CN(C)Cc1ccccc1,14.4 µM
9,COc1ccc(C2=Nn3c(nnc3-c3ccccc3F)SC2)cc1OC1CCOC1 (stereo unspecified),13.5 µM
10,CCOc1cc2[nH]c(=S)n(Cc3ccc(C(=O)NCCN(CC)CC)cc3)c(=O)c2cc1OCC,12 µM
11,CC1=NN(c2ccc(C)cc2)C(=O)/C1=C\C=C\c1ccccc1,7.95 µM
12,C[C@@H]1CCCCO[C@H](CN(C)Cc2ccc(C(=O)Nc3ccccc3N)cc2)[C@@H](C)CN([C@H](C)CO)C(=O)c2cc(NS(=O)(=O)c3ccc(Cl)cc3)ccc2O1,14.3 µM
13,CC12CCC(O)CC1CCC1C2CCC2(C)C(C3=CC(=O)OC3)CCC12O (stereo unspecified),0.385 µM
14,C[C@]12CC[C@H](O)C[C@H]1CC[C@@H]1[C@@H]2C[C@@H](O)[C@]2(C)[C@@H](C3=CC(=O)OC3)CC[C@]12O,1.1 µM
15,COc1cc2c(OC(C)=O)c3c(c(-c4ccc5c(c4)OCO5)c2cc1OC)C(=O)OC3,0.0216 µM
16,Cc1ccc(/C=N/Nc2ccnc3cc(Cl)ccc23)c(C)c1,6.15 µM
17,CCOC(=O)[C@]12Cc3ccc(C)cc3[C@H]1N(C1CCCCC1)C(=O)c1ccccc12,5.01 µM
18,C[C@H]1CN([C@@H](C)CO)C(=O)c2cc(N(C)C)ccc2O[C@@H]1CN(C)Cc1ccc(C(=O)Nc2ccccc2N)cc1,14.1 µM
19,COc1ccc(CN(C)C[C@H]2Oc3ccc(NC(=O)CCCCCC(=O)Nc4ccccc4N)cc3CC(=O)N([C@H](C)CO)C[C@H]2C)cc1,18 µM

# Test system: not listed separately
# Test: as above
# Settings: A673 Ewing sarcoma viability, CellTiter-Glo ATP luminescence, 72 h; at 23.5 µM (top of the series)
row,SMILES,"activity change, negative = cytotoxicity"
1,N#C[C@H]1N[C@H](CO)[C@H]1c1ccc(C#Cc2ccccc2F)cc1,3.42% (inactive)

# Same assay, conditions: A673 Ewing sarcoma viability, CellTiter-Glo ATP luminescence, 72 h; at 26 µM (top of the series)
row,SMILES,"activity change, negative = cytotoxicity"
1,CC(C)(C)C(=O)Nc1ccc(N=Nc2ccccc2)cc1,-13.9% (inactive)
2,C[C@@H]1CN([C@@H](C)CO)S(=O)(=O)c2ccc(C#CCN(C)C)cc2O[C@@H]1CN(C)Cc1ccncc1,-10.8% (inactive)
3,Nc1ccc(Oc2cccc(Oc3ccc(N)cc3)c2)cc1,-3.72% (inactive)
4,Cc1ccc(C(=O)CN2C(=O)c3ccccc3S2(=O)=O)cc1,11.7% (inactive)
5,COCc1cc(C)nc2sc(C(=O)NCCO)c(-n3cccc3)c12,13.2% (inactive)
6,O=C(CCCCl)Nc1nc(-c2ccc3c(c2)OCCO3)cs1,10.2% (inactive)
7,CC(=O)N1CCCC(c2cc(C(=O)Nc3ccccc3)no2)C1 (stereo unspecified),9.56% (inactive)
8,COC(=O)Cc1[nH]n(-c2nc3ccccc3s2)c(=O)c1C(C)=Nc1ccc(C)cc1,-10.7% (inactive)
9,CC1(CCc2ccccc2)NC(=O)N(CC(=O)N2CC(=O)Nc3ccccc32)C1=O (stereo unspecified),7.32% (inactive)
10,C[C@H]1CN([C@@H](C)CO)C(=O)c2cc(NS(=O)(=O)c3ccc(Cl)cc3)ccc2O[C@H]1CN(C)Cc1ccc(Cl)c(Cl)c1,4.93% (inactive)
11,C=CCn1c(O)c(N=Nc2ccccc2)c2ccccc21,7.11% (inactive)
12,N#C[C@H]1[C@H](c2ccc(C#Cc3ccccc3F)cc2)[C@@H](CO)N1C(=O)C1CCOCC1,-1.72% (inactive)
13,Cc1ccsc1/C=N/Nc1ccc(C(=O)O)cc1,5.43% (inactive)
14,O=C(CN1C(=O)C(=O)c2ccccc21)c1ccc(Cl)cc1,-6.17% (inactive)
15,COCCCNc1ccn2nc(-c3ccccc3)cc2n1,0.68% (inactive)
16,C(=C\c1ccc(C2[C@H]3CNC[C@@H]2N3Cc2ccccn2)cc1)/c1ccccc1 (stereo partly specified),-3.03% (inactive)
17,O=C(NCCc1ccccc1)c1ccccc1NC(=O)C1CCCO1 (stereo unspecified),0.338% (inactive)
18,O=C(CNC(=O)Cc1ccccc1)N=Nc1c(O)n(Cc2ccc3c(c2)OCO3)c2ccccc12,-1.52% (inactive)
19,COC(=O)c1cccc(NC(=O)NC(=O)c2ccccc2Cl)c1,-9.77% (inactive)
20,CCN1CCN(/C=N/c2nc3c(s2)CCCC3)CC1,-1.1% (inactive)
21,C/C=C/c1ccc([C@H]2[C@@H](CO)N3C(=O)CN(S(=O)(=O)c4cccc(F)c4)C[C@@H]23)cc1,-5.5% (inactive)

row,SMILES,"activity change, negative = cytotoxicity"
1,CN(C)c1ccc(N=Nc2ccccc2Br)cc1,-10.3% (inactive)
2,CCOC(=O)Cc1csc(NC(=S)NC(=O)c2ccc(C)cc2)n1,-1.19% (inactive)
3,Cc1cc(C)cc(OCC(=O)OCC(=O)Nc2cc(S(=O)(=O)N3CCOCC3)ccc2C)c1,-2.43% (inactive)
4,Cc1c(CC(=O)NCCCC(=O)O)c(=O)oc2cc3c(cc12)CCC(C)(C)O3,-4.88% (inactive)
5,COc1ccc(/C=C2\SC(=S)N(CCCC(=O)NC3CCCC3)C2=O)cc1OC,-18.4% (inactive)
6,Nc1ccc(Oc2ccccc2-c2ccccc2)cc1,-6.58% (inactive)
7,CCN(CC)C(=O)CN1C(=O)C(=O)c2ccccc21,-0.157% (inactive)
8,CCc1ccc(Cn2ncc3c(C(=O)O)cc(C)nc32)cc1,17.3% (inactive)
9,c1cncc(-c2ccc([C@@H]3[C@H]4CNC[C@@H]3N4CC3CCOCC3)cc2)c1,9.2% (inactive)
10,COc1ccc(/C=C2\SC(=O)N(CCCC(=O)Nc3ccc(C(=O)O)cc3)C2=O)cc1,-0.477% (inactive)
11,C/C=C/c1ccc(C2[C@@H]3CN(C(=O)Cc4ccccc4)C[C@H]2N3)cc1 (stereo partly specified),-1.54% (inactive)
12,CC(=O)c1ccc(NC(=O)c2noc3c2CCC3)cc1,-3.66% (inactive)
13,Cc1cc(-c2nc3ccccc3s2)ccc1N,-21.8% (inactive)
14,COC(=O)C[C@@H]1CC[C@@H]2[C@H](COc3ccc(NC(=O)c4ccccc4)cc3C(=O)N2C)O1,-5.14% (inactive)
15,CC(C)(C)c1ccc(/C=N/Nc2ccc(C(=O)O)cc2)cc1,-3.68% (inactive)
16,CC(NC(=O)c1ccco1)c1nc(-c2ccc(C(C)(C)C)cc2)no1 (stereo unspecified),-2.68% (inactive)
17,Nc1ncn([C@@H]2O[C@H](CO)[C@@H](O)[C@H]2O)c(=O)n1,-13.8% (inactive)
18,O=C(CCCN1C(=O)/C(=C/c2ccccc2Cl)SC1=S)NNC(=O)c1ccc(Cl)cc1Cl,-0.616% (inactive)
19,Cc1ccc2oc(/N=C(\N)NC(=O)C(C)(C)C)nc2c1,-3.45% (inactive)
20,COc1ccccc1CNC(=O)C[C@@H]1CC[C@H]2[C@@H](COC[C@H](O)CN2C(=O)Nc2ccc(C(F)(F)F)cc2)O1,-9.47% (inactive)
21,CN(C)c1ccc(N=Nc2ccc(C(=O)O)cc2)cc1,1.5% (inactive)

row,SMILES,"activity change, negative = cytotoxicity"
1,C[C@@H]1CN([C@@H](C)CO)C(=O)c2cccc(NC(=O)Nc3ccccc3)c2O[C@@H]1CN(C)Cc1ccc(-c2ccccc2)cc1,-1.33% (inactive)
2,Cc1noc(C)c1NC(=O)Nc1ccc2c(c1)CC(=O)N([C@H](C)CO)C[C@@H](C)[C@@H](CN(C)Cc1ccc(Cl)c(Cl)c1)O2,7.25% (inactive)
3,CCOC(=O)C1CCCCN1C(=O)CCc1c(C)nc2cc(-c3ccccc3)nn2c1C (stereo unspecified),-3.12% (inactive)
4,O=C(Nc1cccc(Oc2ccc3c(c2)C(=O)NC3=O)c1)c1cccs1,-6.77% (inactive)
5,O=c1c2ccccc2oc2ccc(C#CC3(O)CCCCC3)cc12,1.29% (inactive)
6,COC(=O)c1c(C)[nH]c(/C=N/Nc2ccccc2)c1C,5.78% (inactive)
7,O=C(CN1C(=O)c2ccccc2S1(=O)=O)c1ccc(F)cc1,-6.39% (inactive)
8,CCc1ccc(/C=C2\SC(=S)N(CCCC(=O)Nc3cc(C)on3)C2=O)cc1,-3.29% (inactive)
9,Cc1ccc(N=C2NC(=O)/C(=C\c3cccs3)S2)cc1C,1.74% (inactive)
10,CCOc1ccc(NC(=O)C(=O)N/N=C\c2ccc(CNS(=O)(=O)c3ccccc3)o2)cc1,-1.27% (inactive)
11,COc1ccc(C(=O)OCC(=O)Nc2ccc(Cl)c(C(F)(F)F)c2)c(OC)c1OC,2.74% (inactive)
12,O=C1Nc2ccccc2C1=Nc1ccc(Br)cc1,-3.12% (inactive)
13,O=C(CNC(c1ccccc1)c1ccccc1)Nc1ccccc1-c1ccccc1,-1.93% (inactive)
14,Cc1ccccc1N=CC1=C(O)c2ccccc2C1=O,-6.09% (inactive)
15,Cc1occc1-c1n[nH]c(=S)n1C,1.91% (inactive)
16,COc1ccc2nc(-c3ccc(F)cc3)sc2c1,-14.9% (inactive)
17,Nc1ccc(-c2cc3ccccc3c(=O)o2)cc1,-2.08% (inactive)
18,COc1ccc(NC(=O)c2cc3ccccc3oc2=O)cc1,-20.8% (inactive)
19,CN(C)[C@@H]1CCC[C@@H]1OC(=O)C(c1ccccc1)c1ccccc1,-2.99% (inactive)
